Where a name gives a salt, the structure may show the parent alone.
Key:
[1] = target: pan-HDAC; test: In vitro enzyme inhibition assay - HDAC (HDAC-Glo I/II), pan-HDAC; format: biochemical
Method in brief: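 Inhibition was measured with the HDAC-Glo I/II luminescent assay, testing compound as an 8-point, 5-fold dilution series from a 1 mM DMSO stock. Luminescence (RLU) was normalized to no-inhibitor and no-enzyme controls, and IC50 was derived by four-parameter variable-slope fitting.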

[2] = system: NCI-H1417 cells; test: In vitro cell inhibition assay - H1417 cell proliferation (CellTiter-Glo); format: cell-based; settings: Homo sapiens, NCI-H1417, H1417 small cell lung cancer cell proliferation
Method in brief: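 Cells exposed to 8 compound concentrations (5-fold dilutions) in BEGM with 10% FBS for 7 days at 37° C., 5% CO2. Viable cells measured by CellTiter-Glo luminescence; inhibition versus no-inhibitor and no-cell controls, IC50 fitted.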

[3] = target: HDAC8 (Homo sapiens (Human), UniProt Q9BY41); test: In vitro enzyme inhibition assay - HDAC (HDAC-Glo I/II), HDAC8; format: biochemical; settings: read-out: HDAC IC50 (nM) HDAC 8
Experimental: 2. In Vitro Enzyme Inhibition Assay—HDAC
The effect of the compound on the enzymatic activity of pan-HDAC and two isoforms (HDAC1 and HDAC8) was examined using the HDAC-Glo I/II Assay and Screening System assay to assess the level of inhibition of HDAC protease activity and selectivity in each isoform. The proteins and detection reagents were from the HDAC-Glo™ I/II Assay and Screening System (Promega). A 1 mM stock solution of the compound was prepared in DMSO and diluted in a 5-fold gradient to create a series of 8 concentrations, and a specific volume of the highest concentration was diluted 25 times with HDAC Buffer to obtain 4× working solution of the compound. […] The 384-well plate was then read on a multifunctional microplate reader, with the Luminescence channel selected to record Luminescence values (RLU). The inhibition rate was calculated using the following formula: […]
Note: ‘Negative’ refers to the group without the inhibitor; ‘Blank’ refers to the group without the enzyme.
The IC50 value was calculated by fitting the inhibition rate by GraphPad Prism software, employing log (inhibitor) vs. response-Variable Slope (four parameters) model.

[4] = system: NCI-H69 cells; test: In vitro cell inhibition assay - NCI-H69 cell proliferation (CellTiter-Glo); format: cell-based; settings: Homo sapiens, NCI-H69, H69 small cell lung cancer cell proliferation
Method in brief: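 Over 7 days at 37° C. and 5% CO2, cells grew in RPMI-640 supplemented with 20% FBS in the presence of eight 5-fold-spaced compound concentrations.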

[5] = target: LSD1 (Homo sapiens (Human), UniProt O60341); test: In vitro enzyme inhibition assay - LSD1 (HTRF); format: biochemical

HDAC8, sequence (Q9BY41 whole entry): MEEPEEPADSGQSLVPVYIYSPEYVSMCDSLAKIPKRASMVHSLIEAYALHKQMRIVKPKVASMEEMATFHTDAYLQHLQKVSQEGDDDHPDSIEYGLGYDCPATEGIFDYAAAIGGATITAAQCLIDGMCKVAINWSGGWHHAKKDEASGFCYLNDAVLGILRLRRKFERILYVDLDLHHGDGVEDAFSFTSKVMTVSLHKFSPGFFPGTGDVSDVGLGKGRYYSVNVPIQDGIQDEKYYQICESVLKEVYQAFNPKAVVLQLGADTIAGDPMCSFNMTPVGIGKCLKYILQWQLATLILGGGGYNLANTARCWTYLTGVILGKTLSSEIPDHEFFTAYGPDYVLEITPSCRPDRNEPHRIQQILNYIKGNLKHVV

SMILES	IC50 [1] [nM]	IC50 [2] [nM]	IC50 [3] [nM]	IC50 [4] [nM]	IC50 [5] [nM]
CNc1ccc(-c2cnc(N3CCC(NCc4ccc(CCC(=O)NO)cn4)CC3)c(C#N)c2-c2ccc(C#N)c(F)c2)cc1O [Example 194, 3-(6-((1-(3-Cyano-4-(4-cyano-3-fluorophenyl)-5-(3-hydroxy-4-(methylamino)phenyl)pyridin-2-yl)piperidin-4-yl)amino)methyl) pyridin-3-yl)-N-hydroxypropanamide hydrochloride]	7.27	119	543	1030	1.09
N#Cc1ccc(-c2c(-c3ccc(OCCCCCCC(=O)NO)c(O)c3)cnc(N3CCC(N)CC3)c2C#N)cc1F [Example 25, 7-(4-(6-(4-Aminopiperidin-1-yl)-5-cyano-4-(4-cyano-3-fluorophenyl)pyridin-3-yl)-2-hydroxyphenoxy)-N-hydroxyheptanamide hydrochloride]	6.66	50.1	129		0.23
COc1cc(N2CCC(N)CC2)nc(-c2ccc(C#N)c(F)c2)c1-c1ccc(OCCCCCCC(=O)NO)c(O)c1 [Example 27, 7-(4-(6-(4-aminopiperidin-1-yl)-2-(4-cyano-3-fluorophenyl)-4-methoxypyridin-3-yl)-2-hydroxyphenoxy)-N-hydroxyheptanamide hydrochloride]	134	48.9	186		1.38
N#Cc1ccc(-c2nc(N3CCC(N)CC3)cc(O)c2-c2ccc(OCCCCCCC(=O)NO)c(O)c2)cc1F [Example 19, 7-(4-(6-(4-aminopiperidin-1-yl)-2-(4-cyano-3-fluorophenyl)-4-hydroxypyridin-3-yl)-2-hydroxyphenoxy)-N-hydroxyheptanamide hydrochloride]	174	2820	221		0.86
N#Cc1ccc(-c2cc(OCc3ccc(/C=C/C(=O)NO)cc3)cc(N3CCC(N)CC3)n2)cc1F [Example 69, (E)-3-(4-(((2-(4-Aminopiperidin-1-yl)-6-(4-cyano-3-fluorophenyl)pyridin-4-yl)oxy)methyl)phenyl)-N-hydroxyacrylamide formate]	30.1		198		> 1000
COc1ccc(-c2cnc(N3CCC(NCc4ccc(/C=C/C(=O)NO)c(OC)c4)CC3)c(C#N)c2-c2ccc(C#N)nc2)cc1O [Example 257, (E)-3-(4-(((1-(3′,6-Dicyano-5′-(3-hydroxy-4-methoxyphenyl)-[3,4′-bipyridin]-2′-yl)piperidin-4-yl)amino)methyl)-2-methoxyphenyl)-N-hydroxyacrylamide formate]	0.59	7.61		11.2	7.93
N#Cc1ccc(-c2cc(C(=O)N3C4CCC3CC(N)C4)sc2-c2ccc(OCCCCCCC(=O)NO)c(O)c2)cc1F (stereo not drawn) [Example 32, 7-(4-(5-(3-amino-8-azabicyclo[3.2.1]octane-8-carbonyl)-3-(4-cyano-3-fluorophenyl)thiophen-2-yl)-2-hydroxyphenoxy)-N-hydroxyheptanamide hydrochloride]	14	54.7	279		0.35
COc1ccc(-c2cnc(N3CCC(NCc4ccc(/C=C/C(=O)NO)cc4F)CC3)c(C#N)c2-c2ccc(C#N)nc2)cc1O [Example 252, (E)-3-(4-(((1-(3′,6-Dicyano-5′-(3-hydroxy-4-methoxyphenyl)-[3,4′-bipyridin]-2′-yl)piperidin-4-yl)amino)methyl)-3-fluorophenyl)-N-hydroxyacrylamide formate]	1.03	1.86		4.32	3.24
N#Cc1ccc(-c2c(-c3ccc(N4CCOCC4)c(O)c3)cnc(N3CCC(NCc4ccc(/C=C/C(=O)NO)cn4)CC3)c2C#N)cc1F [Example 246, (E)-3-(6-(((1-(3-Cyano-4-(4-cyano-3-fluorophenyl)-5-(3-hydroxy-4-morpholinophenyl)pyridin-2-yl)piperidin-4-yl)amino)methyl)pyridin-3-yl)-N-hydroxyacrylamide formate]	5.38	10.8		14.3	0.93
COc1ccc(-c2cnc(N3CCC(NCc4ccc(/C=C/C(=O)NO)cc4)C(C)C3)c(C#N)c2-c2ccc(C#N)c(F)c2)cc1O (stereo not drawn) [Example 242, (E)-3-(4-(((1-(3-Cyano-4-(4-cyano-3-fluorophenyl)-5-(3-hydroxy-4-methoxyphenyl)pyridin-2-yl)-3-methylpiperidin-4-yl)amino)methyl)-N-hydroxyacrylamide formate]	16	18.4		17.8	2.44
CC(C)(O)Cn1nnc2cc(-c3cnc(N4CCC(NCc5ccc(/C=C/C(=O)NO)nc5)CC4)c(C#N)c3-c3ccc(C#N)c(F)c3)ccc21 [Example 225, (E)-3-(5-(((1-(3-Cyano-4-(4-cyano-3-fluorophenyl)-5-(1-(2-hydroxy-2-methylpropyl)-1H-benzo[d][1,2,3]triazol-5-yl)pyridin-2-yl)piperidin-4-yl)amino)methyl)pyridin-2-)-N-hydroxyacrylamide formate]	3.43	8.51		78	0.35
COc1ccc(-c2cnc(N3CCC(NCc4ccc(/C=C/C(=O)NO)cc4)CC3)c(C#N)c2-c2cnc(C#N)cn2)cc1O [Example 256, (E)-3-(4-(((1-(3-Cyano-4-(5-cyanopyrazin-2-yl)-5-(3-hydroxy-4-methoxyphenyl)pyridin-2-yl)piperidin-4-yl)amino)methyl)phenyl)-N-hydroxyacrylamide formate]	0.26	8.48		8.63	28.8
COc1ccc(-c2cnc(N3CCC(CNCc4ccc(/C=C/C(=O)NO)cc4)C3)c(C#N)c2-c2ccc(C#N)c(F)c2)cc1O (stereo not drawn) [Example 228, (E)-3-(4-((((1-(3-Cyano-4-(4-cyano-3-fluorophenyl)-5-(3-hydroxy-4-methoxyphenyl)pyridin-2-yl)pyrrolidin-3-yl)methyl)amino)methyl)phenyl)-N-hydroxyacrylamide hydrochloride]	24.3	91.7		84.8	0.9
COc1ccc(-c2cnc(N3CCC(NCc4ccc(/C=C/C(=O)NO)cc4)CC3)c(C#N)c2-c2ccc(C(N)=O)nc2)cc1O [Example 259, (E)-3′-Cyano-5′-(3-hydroxy-4-methoxyphenyl)-2′-(4-((4-(3-(hydroxyamino)-3-oxoprop-1-en-1-yl)benzyl)amino)piperidin-1-yl)-[3,4′-bipyridine]-6-carboxamide formate]	0.25	7.2		7.48	81.2
COc1ccc(-c2cnc(N3CCC(NCc4ccc(/C=C(\F)C(=O)NO)cc4)CC3)c(F)c2-c2ccc(C#N)nc2)cc1O [Example 271, (Z)-3-(4-(((1-(6-Cyano-3′-fluoro-5′-(3-hydroxy-4-methoxyphenyl)-[3,4′-bipyridin]-2′-yl)piperidin-4-yl)amino)methyl)phenyl-2-fluoro-N-hydroxyacrylamide formate]	0.83	2.19		1.8	35.1

— patent US20250304549A1, “HYDROXYAMIDE DERIVATIVE AND USE THEREOF” (SICHUAN HUIYU PHARMACEUTICAL CO., LTD., priority 2022, published 2025)
